In PubChem BioAssay (NCI):
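Growth conditions: 96-well plates. Treatment: test compound, 48 hours, 5 concentrations. Analysis: linear interpolation between bracketing concentrations; unreached endpoints set to highest concentration. TGI is the concentration that stops growth completely.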

What was measured:
Test in all cases: DTP human tumour cell line panel, 48 h
786-0 renal = tested on: 786-0 renal
A549 NSCLC = tested on: A549 NSCLC
CAKI-1 renal = tested on: CAKI-1 renal
CCRF-CEM leukemia = tested on: CCRF-CEM leukemia
COLO 205 colon = tested on: COLO 205 colon
DU-145 prostate = tested on: DU-145 prostate
EKVX NSCLC = tested on: EKVX NSCLC
HCC-2998 colon = tested on: HCC-2998 colon
HCT-15 colon = tested on: HCT-15 colon
HL-60(TB) leukemia = tested on: HL-60(TB) leukemia
HOP-62 NSCLC = tested on: HOP-62 NSCLC
HT29 colon = tested on: HT29 colon
IGROV1 ovarian = tested on: IGROV1 ovarian
K-562 leukemia = tested on: K-562 leukemia
KM12 colon = tested on: KM12 colon
M14 melanoma = tested on: M14 melanoma
MALME-3M melanoma = tested on: MALME-3M melanoma
MCF7 breast = tested on: MCF7 breast
MDA-MB-231 breast = tested on: MDA-MB-231 breast
MDA-N = tested on: MDA-N
MOLT-4 leukemia = tested on: MOLT-4 leukemia
NCI-H23 lung = tested on: NCI-H23 lung
OVCAR-8 ovarian = tested on: OVCAR-8 ovarian
PC-3 prostate = tested on: PC-3 prostate
RPMI-8226 leukemia = tested on: RPMI-8226 leukemia
RXF 393 renal = tested on: RXF 393 renal
SF-268 CNS = tested on: SF-268 CNS
SF-295 CNS = tested on: SF-295 CNS
SK-MEL-28 melanoma = tested on: SK-MEL-28 melanoma
SK-MEL-5 melanoma = tested on: SK-MEL-5 melanoma
SK-OV-3 ovarian = tested on: SK-OV-3 ovarian
SN12C renal = tested on: SN12C renal
SNB-75 CNS = tested on: SNB-75 CNS
SR leukemia = tested on: SR leukemia
SW-620 colon = tested on: SW-620 colon
T-47D breast = tested on: T-47D breast
TK-10 renal = tested on: TK-10 renal
UACC-257 melanoma = tested on: UACC-257 melanoma
UACC-62 melanoma = tested on: UACC-62 melanoma
A498 renal = tested on: A498 renal
ACHN renal = tested on: ACHN renal
HCT-116 colon = tested on: HCT-116 colon
HOP-92 NSCLC = tested on: HOP-92 NSCLC
HS 578T breast = tested on: HS 578T breast
LOX IMVI melanoma = tested on: LOX IMVI melanoma
MDA-MB-435 = tested on: MDA-MB-435
NCI-H226 lung = tested on: NCI-H226 lung
NCI-H460 lung = tested on: NCI-H460 lung
NCI/ADR-RES ovarian = tested on: NCI/ADR-RES ovarian
OVCAR-3 ovarian = tested on: OVCAR-3 ovarian
OVCAR-4 ovarian = tested on: OVCAR-4 ovarian
OVCAR-5 ovarian = tested on: OVCAR-5 ovarian
SF-539 CNS = tested on: SF-539 CNS
SK-MEL-2 melanoma = tested on: SK-MEL-2 melanoma
SNB-19 CNS = tested on: SNB-19 CNS
U251 CNS = tested on: U251 CNS
BT-549 breast = tested on: BT-549 breast
NCI-H522 lung = tested on: NCI-H522 lung
UO-31 renal = tested on: UO-31 renal

N#Cc1ccc(NC(=NCC(=O)O)Nc2cccc3ccccc23)cc1
TGI (786-0 renal): > 10 µM
TGI (A549 NSCLC): > 10 µM
TGI (CAKI-1 renal): > 10 µM
TGI (CCRF-CEM leukemia): > 10 µM
TGI (COLO 205 colon): > 10 µM
TGI (DU-145 prostate): > 10 µM
TGI (EKVX NSCLC): > 10 µM
TGI (HCC-2998 colon): > 10 µM
TGI (HCT-15 colon): > 10 µM
TGI (HL-60(TB) leukemia): > 10 µM
TGI (HOP-62 NSCLC): > 10 µM
TGI (HT29 colon): > 10 µM
TGI (IGROV1 ovarian): > 10 µM
TGI (K-562 leukemia): > 10 µM
TGI (KM12 colon): > 10 µM
TGI (M14 melanoma): > 10 µM
TGI (MALME-3M melanoma): > 10 µM
TGI (MCF7 breast): > 10 µM
TGI (MDA-MB-231 breast): > 10 µM
TGI (MDA-N): > 10 µM
TGI (MOLT-4 leukemia): > 10 µM
TGI (NCI-H23 lung): > 10 µM
TGI (OVCAR-8 ovarian): > 10 µM
TGI (PC-3 prostate): > 10 µM
TGI (RPMI-8226 leukemia): > 10 µM
TGI (RXF 393 renal): > 10 µM
TGI (SF-268 CNS): > 10 µM
TGI (SF-295 CNS): > 10 µM
TGI (SK-MEL-28 melanoma): > 10 µM
TGI (SK-MEL-5 melanoma): > 10 µM
TGI (SK-OV-3 ovarian): > 10 µM
TGI (SN12C renal): > 10 µM
TGI (SNB-75 CNS): > 10 µM
TGI (SR leukemia): > 10 µM
TGI (SW-620 colon): > 10 µM
TGI (T-47D breast): > 10 µM
TGI (TK-10 renal): > 10 µM
TGI (UACC-257 melanoma): > 10 µM
TGI (UACC-62 melanoma): > 10 µM

CC(=O)c1c(-c2ccc(Cl)cc2)c(-c2ccc(Cl)cc2)n[nH]c1=O
TGI (786-0 renal): > 100 µM
TGI (A498 renal): 77.4 µM
TGI (A549 NSCLC): > 100 µM
TGI (ACHN renal): 66.1 µM
TGI (CAKI-1 renal): > 100 µM
TGI (CCRF-CEM leukemia): > 100 µM
TGI (COLO 205 colon): > 100 µM
TGI (DU-145 prostate): > 100 µM
TGI (EKVX NSCLC): > 100 µM
TGI (HCC-2998 colon): > 100 µM
TGI (HCT-116 colon): > 100 µM
TGI (HCT-15 colon): > 100 µM
TGI (HL-60(TB) leukemia): 68.8 µM
TGI (HOP-92 NSCLC): > 100 µM
TGI (HS 578T breast): > 100 µM
TGI (HT29 colon): > 100 µM
TGI (IGROV1 ovarian): > 100 µM
TGI (K-562 leukemia): > 100 µM
TGI (KM12 colon): > 100 µM
TGI (LOX IMVI melanoma): 73.9 µM
TGI (M14 melanoma): > 100 µM
TGI (MALME-3M melanoma): 79 µM
TGI (MCF7 breast): > 100 µM
TGI (MDA-MB-231 breast): 86.4 µM
TGI (MDA-MB-435): > 100 µM
TGI (MDA-N): > 100 µM
TGI (MOLT-4 leukemia): > 100 µM
TGI (NCI-H226 lung): > 100 µM
TGI (NCI-H23 lung): > 100 µM
TGI (NCI-H460 lung): > 100 µM
TGI (NCI/ADR-RES ovarian): > 100 µM
TGI (OVCAR-3 ovarian): 79.8 µM
TGI (OVCAR-4 ovarian): 94.8 µM
TGI (OVCAR-5 ovarian): > 100 µM
TGI (OVCAR-8 ovarian): > 100 µM
TGI (PC-3 prostate): > 100 µM
TGI (RPMI-8226 leukemia): 55.4 µM
TGI (RXF 393 renal): > 100 µM
TGI (SF-268 CNS): > 100 µM
TGI (SF-295 CNS): > 100 µM
TGI (SF-539 CNS): 64.2 µM
TGI (SK-MEL-2 melanoma): 81.3 µM
TGI (SK-MEL-28 melanoma): > 100 µM
TGI (SK-MEL-5 melanoma): > 100 µM
TGI (SK-OV-3 ovarian): > 100 µM
TGI (SN12C renal): 93.3 µM
TGI (SNB-19 CNS): > 100 µM
TGI (SR leukemia): > 100 µM
TGI (SW-620 colon): > 100 µM
TGI (T-47D breast): > 100 µM
TGI (TK-10 renal): > 100 µM
TGI (U251 CNS): > 100 µM
TGI (UACC-257 melanoma): > 100 µM
TGI (UACC-62 melanoma): 43.3 µM

O=C(/C=C/c1cccc([N+](=O)[O-])c1)N1CCN(CCOC(c2ccccc2)c2ccccc2)CC1
TGI (786-0 renal): > 100 µM
TGI (A498 renal): > 100 µM
TGI (A549 NSCLC): > 100 µM
TGI (ACHN renal): > 100 µM
TGI (BT-549 breast): > 100 µM
TGI (CAKI-1 renal): > 100 µM
TGI (CCRF-CEM leukemia): 65.4 µM
TGI (COLO 205 colon): 91.9 µM
TGI (DU-145 prostate): > 100 µM
TGI (EKVX NSCLC): > 100 µM
TGI (HCC-2998 colon): 55.2 µM
TGI (HCT-116 colon): 51.8 µM
TGI (HCT-15 colon): > 100 µM
TGI (HOP-62 NSCLC): > 100 µM
TGI (HOP-92 NSCLC): 55.7 µM
TGI (HT29 colon): 71.5 µM
TGI (IGROV1 ovarian): > 100 µM
TGI (K-562 leukemia): 50.7 µM
TGI (KM12 colon): 87.8 µM
TGI (LOX IMVI melanoma): 62.1 µM
TGI (M14 melanoma): > 100 µM
TGI (MALME-3M melanoma): > 100 µM
TGI (MCF7 breast): > 100 µM
TGI (MDA-MB-435): > 100 µM
TGI (MDA-N): > 100 µM
TGI (MOLT-4 leukemia): 27.4 µM
TGI (NCI-H23 lung): > 100 µM
TGI (NCI-H460 lung): > 100 µM
TGI (NCI-H522 lung): > 100 µM
TGI (NCI/ADR-RES ovarian): > 100 µM
TGI (OVCAR-3 ovarian): > 100 µM
TGI (OVCAR-4 ovarian): > 100 µM
TGI (OVCAR-5 ovarian): > 100 µM
TGI (OVCAR-8 ovarian): > 100 µM
TGI (RPMI-8226 leukemia): 27.8 µM
TGI (RXF 393 renal): > 100 µM
TGI (SF-295 CNS): > 100 µM
TGI (SK-MEL-28 melanoma): 64.2 µM
TGI (SK-MEL-5 melanoma): 28.2 µM
TGI (SK-OV-3 ovarian): > 100 µM
TGI (SN12C renal): > 100 µM
TGI (SNB-19 CNS): > 100 µM
TGI (SNB-75 CNS): > 100 µM
TGI (SR leukemia): 32.9 µM
TGI (SW-620 colon): > 100 µM
TGI (T-47D breast): > 100 µM
TGI (TK-10 renal): 47.7 µM
TGI (UACC-257 melanoma): 89.2 µM
TGI (UACC-62 melanoma): > 100 µM
TGI (UO-31 renal): > 100 µM
